Data from the NIST ThermoML archive (doi:10.1021/je060249h).
“And” between values parts separate entries of the source, which are not always exact repeats. Equal values may be shown once. Numbers after ± are expanded uncertainties.

Details: Liquid

ClCc1nc2ccccc2o1 [2-(chloromethyl)-1,3-benzoxazole]
Ebulliometric method (Recirculating still)
Details | vapor or sublimation pressure
347.65 K | 0.08 ± 0.06 kPa
357.1 K | 0.16 ± 0.06 kPa
368.45 K | 0.32 ± 0.07 kPa
375.15 K | 0.59 ± 0.08 kPa
378.2 K | 0.69 ± 0.09 kPa
383.2 K | 0.96 ± 0.12 kPa
388.15 K | 1.39 ± 0.12 kPa
393.5 K | 1.76 ± 0.44 kPa
393.85 K | 1.87 ± 0.44 kPa
395.6 K | 2.03 ± 0.2 kPa
400.3 K | 2.72 ± 0.19 kPa
405.25 K | 3.28 ± 0.25 kPa
408.35 K | 4.19 ± 0.34 kPa
411.9 K | 4.88 ± 0.34 kPa
417.3 K | 6.32 ± 1.7 kPa
418.1 K | 7.29 ± 1.4 kPa
418.85 K | 7.91 ± 1.2 kPa
418.9 K | 7.92 ± 0.73 kPa
422.05 K | 9.41 ± 0.66 kPa
423.2 K | 9.92 ± 0.73 kPa and 10.59 ± 0.75 kPa
424.2 K | 10.53 ± 0.9 kPa
424.55 K | 10.8 ± 1.1 kPa

Clc1ccccc1 [chlorobenzene]
Details | vapor or sublimation pressure [kPa]
330.5 K | 7.92 ± 0.55
337.4 K | 10.59 ± 0.55
